Publication PMC5614969, “High-Affinity Functional Fluorescent Ligands for Human β-Adrenoceptors” (Scientific Reports, 2017)

Tests used:
β1AR = β1AR (Homo sapiens, UniProt P08588); assay: TR-FRET receptor-ligand saturation binding assay, Tag-lite β1AR cells; details: 2 h at room temperature, read-out: Kd app
Procedure: To confirm whether the affinity of carazolol-KK114 (24) is sufficient for the intended imaging experiments and to evaluate its β2/β1AR selectivity, we performed a TR-FRET assay in Tag-lite β1AR or β2AR transfected cells (Cisbio) labeled with Tb^3+ cryptate (Lumi4-Tb) (Fig. 3c)[39]. […] (Fig. 3d, Supplementary Fig. 5b). The high affinities of both fluorescent ligands enabled the imaging experiments.
K d determination was performed on Tag-lite β1AR (Cisbio, Cat. No. C1TT1BETA1) or β2AR (Cisbio, Cat. No. C1TT1BETA2) Tb^3+ cryptate labeled transfected cells. The β1AR or β2AR cells labeled with SNAP-Terbium interact with the specific ligand labeled with the corresponding fluorophore. […] 20 µl of a fluorescent probe or control compound in Tag-lite buffer was added to each well and incubated for 2 h at room temperature (20 °C) before readout. FRET readout was performed on a multiwell plate reader Spark 20 M (Tecan) at room temperature. […] The ratio of the acceptor and donor emission signals was calculated for each individual well using equation (3):3 Ratio=Signal655nm−BackgroundSignal/Signal620nm−BackgroundSignal
Luminescence background signal was measured in wells containing 40 µl of Tag-lite buffer only. Specific binding was calculated by subtracting nonspecific binding ratio from total binding ratio at each fluorescent ligand concentration. […]

β2AR-YFP fusion protein = target: T1, β2AR-YFP fusion protein (Homo sapiens, UniProt P07550); assay: Confocal imaging of living U2OS cells expressing β2AR-YFP (staining, internalization, competitive displacement, no-wash); format: cell-based; details: for Receptor internalization / Staining performance: U2OS cells expressing β2AR-YFP; for Staining performance: 610CP ligands at 1.9 µM (19) and 2.5 µM (16); for Competitive displacement: 100 nM probe (5 nM ab118171) with 10 µM unlabeled BI-167107 or carazolol, 30 min
T1 construct: host or cells: U2OS
T1 sequence (P07550 whole entry, the tested form may be a part): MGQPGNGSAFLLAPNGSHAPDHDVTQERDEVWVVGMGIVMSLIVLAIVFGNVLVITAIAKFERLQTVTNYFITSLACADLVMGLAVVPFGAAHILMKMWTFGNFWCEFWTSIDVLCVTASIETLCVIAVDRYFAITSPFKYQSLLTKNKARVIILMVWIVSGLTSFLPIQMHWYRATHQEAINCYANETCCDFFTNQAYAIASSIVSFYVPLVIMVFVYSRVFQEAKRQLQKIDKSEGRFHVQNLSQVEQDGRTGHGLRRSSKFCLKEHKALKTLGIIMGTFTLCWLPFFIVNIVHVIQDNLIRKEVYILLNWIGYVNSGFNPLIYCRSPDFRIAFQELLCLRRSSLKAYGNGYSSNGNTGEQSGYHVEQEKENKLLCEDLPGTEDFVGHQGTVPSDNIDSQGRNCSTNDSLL
Procedure: U2OS cells (ATCC) were cultured in high-glucose DMEM (Dulbecco’s Modified Eagle medium, Thermo Fisher Scientific) supplemented with GlutaMAX-1 (Thermo Fisher Scientific) and 10% fetal bovine serum (FBS) (Thermo Fisher Scientific) in a humidified 5% CO2 incubator at 37 °C. CAPAN-1 cells (ATCC) were cultured in McCoy’s 5a Medium Modified supplemented with 10% fetal bovine serum (FBS) (Thermo Fisher Scientific) in a humidified 5% CO2 atmosphere at 37 °C. Cells were split every 3–5 days or at confluence. Cells were seeded in glass bottom 12-well plates (MatTek Corporation). […] We used 200,000 cells per well, 3 µg plasmid DNA and 3 µl of Lipofectamine 2000.
We performed imaging 48–72 h after transfection. Staining of the transfected cell was performed in Hanks’ balanced salt solution (HBSS, Lonza) without Phenol Red for 30–40 min at room temperature (to minimize internalization). Samples were washed two times with HBSS, and cells were imaged in DMEM (Thermo Fisher Scientific) supplemented with GlutaMAX-1 (Thermo Fisher Scientific) and 10% fetal bovine serum (FBS). For all staining experiments with cells, stock solutions of dyes in DMSO were used, and final DMSO content was < 0.5%. Imaging was performed on Leica SP8 (Leica Microsystems) or Abberior STED (Abberior Instruments GmbH) microscopes.
Competitive displacement experiment was performed in living U2OS cells expressing β2AR-YFP fusion protein.
Confocal imaging was performed on a Leica SP8 (Leica Microsystems, Mannheim, Germany) inverted confocal microscope equipped with an HC PL APO CS2 63x/1.40 Oil objective. Images were acquired using a 700 Hz bidirectional scanner, pixel size of 70 nm × 70 nm, pinhole of 95.6 µm diameter(1 AU) and frame averaging of 2.

[1] = Fluorescence increase upon addition of SDS to probe solutions; format: physicochemical; details: addition of 0.1% SDS to ligand in PBS pH 7.4 with 1 mg/ml BSA; mean ± SD, n=3
Procedure: Fluorescence spectra of 1 µM solution of fluorescent dyes and ligands in PBS pH 7.4, PBS pH 7.4 + 1 mg/ml BSA (Sigma) and with or without 0.1% SDS (Acros Organics) were recorded on a multiwell plate reader Spark 20 M (Tecan) in half-area black 96-well plates (Greiner Bio-One, cat. 675076) at room temperature (25 °C) after 2 h incubation. Fluorescence emission was recorded from 600 nm to 800 nm with excitation at 580 nm. The emission bandwidth for all measurements was set to 5 nm. The spectra were averaged from 3 individual experiments. Ratios F(BSA+SDS)/F(BSA) of fluorescence signals at 635 nm for 610CP, 645 nm for BODIPY 630/650-X and 655 nm for KK114 conjugates were calculated. The obtained results are summarized (Table 1 and Supplementary Fig. 7).

β1AR, sequence (P08588 whole entry): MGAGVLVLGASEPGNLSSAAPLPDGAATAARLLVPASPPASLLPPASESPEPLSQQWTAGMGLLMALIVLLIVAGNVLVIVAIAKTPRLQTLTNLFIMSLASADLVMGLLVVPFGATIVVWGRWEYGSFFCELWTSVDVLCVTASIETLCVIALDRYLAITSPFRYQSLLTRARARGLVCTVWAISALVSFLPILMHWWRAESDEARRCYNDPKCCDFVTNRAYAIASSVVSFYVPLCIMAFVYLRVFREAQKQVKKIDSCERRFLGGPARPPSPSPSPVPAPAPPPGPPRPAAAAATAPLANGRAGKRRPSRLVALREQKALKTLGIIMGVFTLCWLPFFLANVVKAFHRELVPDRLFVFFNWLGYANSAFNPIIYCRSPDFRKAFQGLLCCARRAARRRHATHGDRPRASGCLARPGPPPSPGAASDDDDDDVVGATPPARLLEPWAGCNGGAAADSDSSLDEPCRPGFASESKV

Row | Structure (SMILES) | Kd (β1AR) [nM] | Receptor internalization (β2AR-YFP fusion protein) | Staining performance (β2AR-YFP fusion protein) | Competitive displacement (β2AR-YFP fusion protein; U2OS β2AR-YFP) | confocal staining at 100 nM (β2AR-YFP fusion protein; U2OS β2AR-YFP, 100 nM, 40 min, room temperature, washed) | confocal staining at 250 nM (β2AR-YFP fusion protein; U2OS β2AR-YFP, 250 nM, 40 min, room temperature, washed) | Fluorescence increase (F BSA+SDS / F BSA) [1] | Receptor internalization (β2AR-YFP fusion protein; listed as carazolol-KK114 (24)) | confocal staining at all tested concentrations (β2AR-YFP fusion protein; U2OS β2AR-YFP, 5 nM, 100 nM, 250 nM, 40 min) | Competitive displacement (β2AR-YFP fusion protein; U2OS β2AR-YFP, listed as Carazalol-KK114 (24))
1 | Cc1c(CCC(=O)NCCOCCOCCNC(=O)CCN(C)C(=O)c2c(F)c(F)c(F)c(F)c2C2=c3cc4c5c(c3Oc3c2cc2c6c3CCCN6C(C)(C)C=C2CS(=O)(=O)O)CCC[N+]=5C(C)(C)C=C4CS(=O)(=O)[O-])cccc1CC(C)(C)NCC(O)c1ccc(O)c2c1OCC(=O)N2 (centres unmarked) [BI-PEG-KK114 (18)] | 63.4 ± 6.6 | triggered extensive βAR internalization and Yes | Strong | no signal and Yes | performed well | performed well | 1.4±0.1 | – | – | –
2 | CN(CCC(=O)NCCOCCOCCOCCOCCC(=O)NCCC(C)(C)NCC(O)COc1cccc2[nH]c3ccccc3c12)C(=O)c1c(F)c(F)c(F)c(F)c1C1=c2cc3c4c(c2Oc2c1cc1c5c2CCCN5C(C)(C)C=C1CS(=O)(=O)O)CCC[N+]=4C(C)(C)C=C3CS(=O)(=O)[O-] (centres unmarked) [Carazolol-KK114 (24)] | – | Weak | Strong | Yes | – | – | 5.9±1.5 | did not change | specific staining | no background fluorescence
